Assays:
[1] = test system: E. coli polymerase I; details: nick-translating a double-stranded template; cited from earlier work
[2] = test system: HIV 115-mer PCR product carryover; test: Post-amplification sterilization, isopsoralen added after amplification (Example 54); assay type: biochemical; details: for sterilization of carryover: AMDMIP 100 μg/ml, PTI 15 minutes, 10^6 copies
Source text: In this embodiment, the method of sterilization comprises: 1) providing PCR reagents, 2) providing template, 3) providing polymerase, 4) mixing PCR reagents, template, and polymerase to initiate PCR, 5) cycling to provide PCR product, 6) providing isopsoralen, 7) adding isopsoralen to PCR product, and 8) irradiating PCR product.
For the purposes of this determination, the steps of the following experiment include (see FIG. 40): a) preparing template, b) providing template, c) providing PCR reagents, d) providing polymerase, e) mixing PCR reagents, template, and polymerase to initiate PCR, f) cycling to provide PCR product, g) carrying over of PCR product into new tubes, h) providing isopsoralen, i) adding isopsoralen to the carryover, j) irradiating, k) addition of new PCR reagents, and 1) subsequent PCR.
Steps a), b), c), d), e), and f). PCR product was provided as described earlier.
Step g) Carrying over of PCR product. Aliquots of PCR product were added into new reaction tubes at 10^6 copies per tube.
Step h) Providing Isopsoralen. AMDMIP was synthesized as described and diluted.
Step i) Addition of Isopsoralen ANDDMIP (100 μg/ml, approximately 10^−4 M) was added reaction vessels containing carryover.
Step i) Irradiation. Irradiation was performed on the PTI device to avoid photoproduct. Three of the new reaction tubes were irradiated while the others were left unirradiated as controls. Irradiation was for 15 minutes at RT as above.
Step k) PCR Reagents and Tag Polymerase Were Added to Appropriate Concentrations. The final volume was increased two fold such that AMDMIP photoproducts were at 50 μg/ml.
Step l) Subsequent PCR. Amplification was performed, in closed reaction vessels using primer pair SK-38/39 for 20, 25 or 30 cycles, using the temperature profile for cycling described above in the presence of α-^32P-dCTP.

[3] = test system: Molt-4 human genomic DNA (human beta globin gene); test: Sterilization of genomic target before PCR (beta globin 174 bp); assay type: biochemical
Procedure: Four samples containing 1 μg of Molt-4 human genomic DNA target were prepared for PCR with primers KM 29 (5′-[…]) and HRI-12 (5′-[…]). These primers give a 174 bp product within the human beta globin gene. All four samples contained AMDMIP at 100 μg/ml, and were irradiated for 0, 5, 10 or 15 minutes prior to PCR amplification. […] Amplification were carried out in 1×Taq buffer (50 mM KCl, 10 mM Tris pH 8.5, 2.5 mM MgCl2, 200 μg/ml gelatin), 175 μM each dNTP, 20 μM primer with 2.5 units of Taq polymerase and 100 μg/ml AMDMIP present during amplification. PCR was carried out for 30 cycles; one cycle=30 sec at 94° C. (denaturing), 30 sec at 55° C. (primer annealing), and 60 sec at 72° C. (extension). α-[…] was used as an internal label. After amplification, the samples were analyzed for product by PAGE followed by autoradiography.

[4] = test system: calf thymus DNA; test: Binding of photoproduct to nucleic acid (dark reaction after pre-irradiation)
Procedure: The nucleic acid binding properties of photoproduct were investigated with calf thymus DNA. 200 μg/ml of ^3H-AMDMIP (1×10^5 CPM/ml) in Taq buffer was irradiated at room temperature with either the CE-III device or the PTI device. This irradiation was performed for 15 minutes in the absence of nucleic acid. Following the irradiations, 200 μl of the irradiated solution was mixed with 200 μl of 1000 μg/ml DNA solution in Taq buffer. Several identical samples were prepared in this manner. One set of samples was allowed to react with the DNA for 2 hours at room temperature. The other set of samples was subjected to 30 cycles of heating and cooling by placing the samples in a thermal cycler [Perkin-Elmer Cetus DNA Thermal Cycler (Part No. N8010150); each cycle involved 93° C. for 30 seconds, 55° C. for 30 seconds and 72° C. for 1 minute]. When the DNA reactions were complete, all samples were analyzed for DNA-associated tritium counts (CPM) by following the flow chart outlined in FIG. 17.
The DNA-associated counts are given in terms of adducts per 100 base pairs in Table 10. For calculation purposes, these adducts are reported as if they represented monomers of AMDMIP. Regardless of the accuracy of this approximation, the process of irradiating ^3H-AMDMIP clearly results in a tritiated product which associates (i.e. binds) with DNA in the absence of subsequent activating wavelengths of electromagnetic radiation. The extent of the association is shown in Table 10 to depend upon the reaction conditions.

Row | Compound | inhibition of polymerase by covalently bound monoadducts [1] | reamplification of carryover with AMDMIP, not light-treated ([2]; 20, 25, 30 cycles) | sterilization of carryover ([2]; 20 cycles) | sterilization of carryover ([2]; 25 cycles) | sterilization of carryover ([2]; 30 cycles) | impact of unirradiated AMDMIP on amplification ([3]; 100 μg/ml (data not shown)) | amplification of genomic target irradiated in presence of AMDMIP ([3]; AMDMIP 100 μg/ml, irradiated 0, 5, 10 or 15 minutes before PCR, 30 cycles) | ADDUCTS PER 1000 BASE PAIRS ([4]; device CE-II, pre-irradiated 15 mins. without nucleic acid, dark reaction room temp.) | ADDUCTS PER 1000 BASE PAIRS ([4]; device CE-III, pre-irradiated 15 mins. without nucleic acid, dark reaction thermally cycled) | ADDUCTS PER 1000 BASE PAIRS ([4]; device PTI, pre-irradiated 15 mins. without nucleic acid, dark reaction thermally cycled) | ADDUCTS PER 1000 BASE PAIRS ([4]; no irradiation, dark reaction room temp. 2 hours) | ADDUCTS PER 1000 BASE PAIRS ([4]; no irradiation, dark reaction thermally cycled 30 cycles)
1 | Cc1cc2occc2c2oc(=O)ccc12 [MIP, 5-Methylisopsoralen] | not inhibited |  |  |  |  |  |  |  |  |  |  | 
2 | Cc1oc2ccc3c(C)cc(=O)oc3c2c1CN [AMDMIP, 4′-Aminomethyl-4,5′-dimethylisopsoralen] |  | show amplification | sterilization appears to be complete | reduced relative to controls | no significant sterilization is observed | no significant impact on amplification | no amplification of the sterilized genomic target | 4.4 | 24.3 | 5.7 | 1.1 | 0.9
